Assay results from patent US20250213561A1, “SELECTIVE HYPOTHALAMUS PERMEABLE HDAC6 INHIBITORS FOR TREATMENT OF LEPTIN-RESISTANT OBESITY” (The Children’s Medical Center Corporation, priority 2022, published 2025).
Entries after “also recorded” stand apart in the source; their conditions may differ.

What was measured:
[1] = in vivo; cited from earlier work
DIO mice [2] = test: Chronic treatment of DIO mice (body weight, food intake, DEXA, glucose homeostasis); format: in vivo; settings: high fat diet induced mice
Description: DIO mice were treated with ACY775 (10 mg/kg/day, i.p.) for 3 weeks. Daily body weight (g) of DIO mice treated with vehicle (n=17) or ACY775 (n=17) during 3 weeks of treatment was determined. Daily food intake (g) during 3 weeks of vehicle or ACY775 treatment was assessed. 24 hours' food intake per mouse during the first week of vehicle or ACY775 treatment was determined. Serum leptin (ng/ml) levels after 3 weeks of vehicle (n=24) or ACY775 (n=24) treatment was assessed. Lean mass (g), fat mass (g) and fat percentage (%) after 3 weeks of vehicle (n=17) or ACY775 (n=17) treatment measured by Dual-energy X-ray absorptiometry (DEXA) scan. DEXA scans were performed in two different cohorts. Glucose tolerance test (GTT) after 1 week of vehicle (n=33) or ACY775 (n=26) treated DIO mice was assessed. Area of curve (AOC) analysis for GTT was performed. Blood glucose (mg/dl) levels after 1 week of vehicle (n=17) or ACY775 (n=16) were assessed in treated DIO mice. Insulin tolerance test (ITT) was performed after 2 weeks of vehicle (n=31) or ACY775 (n=21) treatment of DIO mice. Serum insulin (ng/ml) levels were measured after 3 weeks of vehicle (n=22) or ACY775 (n=21) in treated DIO mice. A homeostatic model assessment of insulin resistance (HOMA-IR) was analyzed after 3 weeks of vehicle (n=14) or ACY775 (n=13) treated DIO mice.
Food intake was analyzed hourly until 3:00 am. […] DEXA scans were performed in two different cohorts.
DIO mice then were treated with ricolinostat (50 mg/kg, i.p.) for 3 weeks. Daily body weight (g), daily food intake (g), serum leptin (ng/ml) levels after 3 weeks of vehicle (n-8) or ricolinostat (n=8) treatment, lean mass (g); fat mass and fat percentage (%) after 3 weeks of vehicle (n=16) or ricolinostat (n=17) treatment measured by DEXA scan were determined.
Blood glucose (mg/dl) levels were measured after 1 week of vehicle (n=16) or ricolinostat (n=16) treated DIO mice. GTT after 1 week of vehicle (n=17) or ricolinostat (n=16) treatment of DIO mice was assessed. AOC analysis for GTT was performed. ITT after 2 weeks of vehicle (n=17) or ricolinostat (n=16) treated DIO mice was measured. Serum insulin (ng/ml) levels after 3 weeks of vehicle (n=8) or ricolinostat (n=8) treatment were measured in DIO mice. Liver sections from 3 weeks of vehicle or ricolinostat treated DIO mice were stained by H&E.
DIO mice then were treated with bavarostat (10 mg/kg, i.p.) for 3 weeks and daily body weight (g) of DIO mice treated with Veh (n=9) or bavarostat (n=9) measured during the three weeks of treatment period. Daily food intake (g) during 3 weeks of Veh or bavarostat treatment was also measured.
ACY1083 was administered to DIO mice as described in Example 3.

DIO mice [3] = test: as above; format: in vivo; settings: 14 days, oral administration
HDAC6 = HDAC6 (Homo sapiens (Human), UniProt Q9UBN7); settings: unit printed as AM; unit of the source corrected; cited from earlier work
HDAC6, sequence (Q9UBN7 whole entry, species assumed): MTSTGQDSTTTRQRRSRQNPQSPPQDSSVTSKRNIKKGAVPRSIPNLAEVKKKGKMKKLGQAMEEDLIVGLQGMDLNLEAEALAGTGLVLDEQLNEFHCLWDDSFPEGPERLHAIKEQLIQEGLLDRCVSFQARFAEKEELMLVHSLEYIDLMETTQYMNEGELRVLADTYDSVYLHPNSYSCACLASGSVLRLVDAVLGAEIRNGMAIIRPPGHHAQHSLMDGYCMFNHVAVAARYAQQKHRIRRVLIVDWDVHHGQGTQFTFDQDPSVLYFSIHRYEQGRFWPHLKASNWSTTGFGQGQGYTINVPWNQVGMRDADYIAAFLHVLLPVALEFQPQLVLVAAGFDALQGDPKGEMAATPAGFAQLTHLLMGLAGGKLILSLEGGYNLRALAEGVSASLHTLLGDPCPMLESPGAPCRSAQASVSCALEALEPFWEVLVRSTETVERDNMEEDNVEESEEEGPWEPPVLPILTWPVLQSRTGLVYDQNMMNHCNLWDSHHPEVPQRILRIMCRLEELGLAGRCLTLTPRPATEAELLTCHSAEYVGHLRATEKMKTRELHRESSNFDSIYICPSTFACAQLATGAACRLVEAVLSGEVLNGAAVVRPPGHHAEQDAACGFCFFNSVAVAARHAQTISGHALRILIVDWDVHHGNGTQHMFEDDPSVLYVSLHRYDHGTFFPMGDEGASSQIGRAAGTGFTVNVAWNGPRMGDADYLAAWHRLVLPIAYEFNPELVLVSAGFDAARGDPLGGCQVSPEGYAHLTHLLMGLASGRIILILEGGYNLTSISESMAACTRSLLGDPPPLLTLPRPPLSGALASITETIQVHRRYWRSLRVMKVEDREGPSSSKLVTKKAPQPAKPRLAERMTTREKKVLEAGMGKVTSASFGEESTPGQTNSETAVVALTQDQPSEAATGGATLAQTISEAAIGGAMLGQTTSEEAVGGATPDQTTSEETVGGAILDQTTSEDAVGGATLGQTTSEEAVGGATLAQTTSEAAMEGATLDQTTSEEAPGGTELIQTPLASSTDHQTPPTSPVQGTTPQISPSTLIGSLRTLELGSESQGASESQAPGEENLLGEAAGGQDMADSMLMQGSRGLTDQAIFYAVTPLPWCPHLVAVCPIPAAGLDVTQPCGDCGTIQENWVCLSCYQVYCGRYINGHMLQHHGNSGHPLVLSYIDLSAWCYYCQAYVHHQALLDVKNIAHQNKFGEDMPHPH

HDAC6 in AgRP neurons = test: DIO mice with HDAC6 depleted in AgRP neurons (HDAC6^Agrp-Δ); format: in vivo; settings: HDAC6^Agrp-Δ versus HDAC6^WT DIO mice
Description: Design, validation, and stereotaxic injection of AAV viral vector carrying the guide RNAs targeting the mouse HDAC6 genomic locus. Three designed sgRNAs were concatenated and constructed into an AAV vector carrying a cre-enabled mCherry fluorescent marker.
Following the bilateral injection of AAV-sgHDAC6 into the arcuate nucleus of Agrp-ires-cre::LSL-Cas9-GFP (Agrp-Cre^+/−::Cas9^+/−) or control LSL-Cas9-GFP (Cas9^+/−) mice, immunostaining to detect the expression of mCherry and GFP was performed. AAV-sg-HDAC6 injected Agrp-Cre^+/−::Cas9^+/− (HDAC6^Agrp-Δ) and Cas9^+/−(HDAC6^WT) DIO mice (n=7 for each group) were fasted for 24 hours, and injected with ACY775 (10 mg/kg. i.p). Hourly total dark cycle food intake (g) (n=7 for each group) of these mice after ACY775 injection was measured. Body weight of AAV-sg-HDAC6 injected HDAC6^Agrp-Δ (n=11) and HDAC6^WT (n=6) mice were measured during 3 weeks of ACY775 (10 mg/kg/day, i.p.) treatment. Daily average food intake of HDAC6^Agrp-Δ (n=11) and HDAC6^WT (n=6) mice was measured during 3 weeks of ACY775 (10 mg/kg/day, i.p.) treatment. 24-hour food intake average of HDAC6^Agrp-Δ and HDAC6^WT mice during the 3 weeks of ACY775 treatment was assessed. Serum leptin level (ng/ml) of HDAC6^Agrp-Δ and HDAC6^WT mice after 2 weeks of ACY775 treatment (n=13 for HDAC6^WT and n=18 for HDAC6^Agrp-Δ) was measured. Lean mass (g); fat mass; and fat percentage (%) of HDAC6^Agrp-Δ and HDAC6^WT DIO mice after 3 weeks of ACY775 treatment was measured by DEXA scan. The HDAC6 inhibitor responsive neurons in the dorsomedial hypothalamus (DMH) were assessed. Immunostaining and quantification of c-Fos expression was performed in the DMH of DIO mice following one-time ACY775 treatment (10 mg/kg, i.p.).

[4] = Brain/plasma ratio and brain or hypothalamus penetration; settings: in vivo
DIO mice [5] = settings: diet-induced obese mice; cited from earlier work
HDAC6-KO DIO mice = test: Chronic treatment of DIO WT versus HDAC6 KO mice; format: in vivo; settings: DIO mice

For `O=C(NO)c1cnc(NC2(c3ccccc3)CCC(F)(F)CC2)nc1` [ACY1083], the “brain penetrance / BBB permeability” value [1] is given as “brain-penetrating”, the “food intake and total body fat mass (summary)” value (DIO mice [2]) is given as “significant reduction of food intake and total body fat mass” and the body weight (DIO mice [3]) is given as “significant decrease in body weight; also recorded: reduced body weight”. For the same molecule, the HDAC6 IC50 (HDAC6) was 3 nM.
In the case of `CN1CCc2c(c3ccccc3n2Cc2ccc(C(=O)NO)cc2)C1` [tubastatin A], the “brain penetrance / BBB permeability” value [1] is listed as “extremely low”, the “anti-obesity effects on chronic treatment” value (HDAC6 in AgRP neurons) is listed as “did not change Tubastatin A's effects on suppressing feeding or body weight” and the “penetrance into the hypothalamus” value [4] is listed as “neither of which have high penetrance into the hypothalamus”. For the same molecule, the “anti-obesity effects reported by Cakir et al.” value (DIO mice [5]) was “reduce food intake, fat mass, hepatic steatosis and improve systemic glucose homeostasis”, the “blood glucose, serum insulin and leptin levels, WT versus HDAC6 KO” value (HDAC6-KO DIO mice) was “all reduced equally in the wt and HDAC6 KO group” and the “fat mass and fat %, WT versus HDAC6 KO” value (HDAC6-KO DIO mice) was “significantly lower in both wt and HDAC6 KO groups”. The “food intake, WT versus HDAC6 KO” value (HDAC6-KO DIO mice) was “reduced similarly”, the “glucose tolerance and insulin sensitivity (GTT, ITT), WT versus HDAC6 KO” value (HDAC6-KO DIO mice) was “improved glucose tolerance and increased insulin sensitivity in both wt and the HDAC6 KO mice” and the “lean mass, WT versus HDAC6 KO” value (HDAC6-KO DIO mice) was “not different”. For the same molecule, the “body weight, WT versus HDAC6 KO” value (HDAC6-KO DIO mice; 3 weeks, ACY775 10, ACY738 50, Tubastatin A 25 mg/kg/day i.p.) was “reduced the body weight of the HDAC6 KO mice the same as the wt mice”.
